Source: PubChem BioAssay AID463206 (Broad Institute, 2010)
Active and inactive are the calls of the source.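 Rule for the calls: active = caspase luminescence falls with dose and the half-maximal concentration AC50 from the fitted curve is at or below a set limit; inconclusive = flat fit at 30 to 70% signal loss, or invalid fit; inactive = AC50 above the limit, or signal rises instead.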

These molecules were tested on INS-1E cytokine-induced caspase-3/7, Caspase-Glo luminescence, 48 h (assay: suppression of cytokine-driven beta-cell apoptosis – INS-1E rat cells, luminescence, orthogonal assay for beta-cell apoptosis protection project, dose response (AID 463206)).

SMILES	AC50
Cc1ccc(NC(=O)c2nc(S(=O)(=O)Cc3ccccc3)ncc2Cl)cc1	> 26 µM (inactive)
O=C(Nc1cccc(NC(=O)c2ccccc2Cl)c1)c1ccc([N+](=O)[O-])o1	> 26 µM (inactive)
COc1cc(-c2nc3ccc(C)cn3c2NCc2ccccc2)ccc1SC1CCCCC1	> 26 µM (inactive)
Cc1ccc(Nc2c(-c3ccccn3)nc3ccc(C)cn23)cc1	> 26 µM (inactive)
O=[N+]([O-])c1ccc(/C=N/n2cnc3ccccc32)s1	> 26 µM (inactive)
Clc1ccc(OCCN2CCN(c3ncnc4sccc34)CC2)cc1	> 26 µM (inactive)
CCCC1CCC(c2ccc(C(=O)NN)cc2)CC1 (centres undefined)	> 12 µM (inactive)
COc1ccc(C(=O)N/N=C/c2cc(Br)ccc2O)cc1OC	> 26 µM (inactive)
Cc1ccc(-c2c(C#N)c(N)n3c(nc4ccccc43)c2C#N)cc1	> 26 µM (inactive)
Cc1ccc(NC(=O)C2CCN(S(=O)(=O)c3ccc(N4CCCC4=O)cc3)CC2)cc1Cl	> 26 µM (inactive)
O=C(CNC(=O)c1ccccc1O)N/N=C/c1cc(Br)ccc1OC(=O)/C=C/c1ccco1	> 26 µM (inactive)
O=C(OCn1ncc(Br)c(Br)c1=O)c1ccc(F)cc1	> 26 µM (inactive)
CCS(=O)(=O)c1ncc(Cl)c(C(=O)Nc2ccccc2OC)n1	> 26 µM (inactive)
Cc1ccc(C)c(-c2csc(NC(=O)C3=COCCO3)n2)c1	> 26 µM (inactive)
COc1ccc(OC)c(NC(=O)CSc2nnc(-c3cccnc3)s2)c1	> 26 µM (inactive)
OC(COC(c1ccc(F)cc1)c1ccc(F)cc1)CN1CCc2ccccc2C1 (centres undefined)	> 26 µM (inactive)
COc1ccc(/C(C)=N/NC(=O)c2cccc(S(=O)(=O)N3CCCC3)c2)c(O)c1	> 26 µM (inactive)
CCOc1ccc(-n2c(-c3ccccc3)c[n+]3c2CCC3)cc1	> 26 µM (inactive)
O=C(OCCOc1cccc(Cl)c1)c1cc(S(=O)(=O)N2CCCCC2)ccc1N1CCOCC1	> 26 µM (inactive)
C/C(=N\NC(=O)c1nnn(-c2nonc2N)c1CN(C)c1ccccc1)c1ccccc1O	> 26 µM (inactive)
COc1ccccc1NC(=O)Cn1cc(C(=O)c2ccco2)c2ccccc21	> 26 µM (inactive)
NC(=O)c1ccc(N2CCN(S(=O)(=O)c3cccs3)CC2)c([N+](=O)[O-])c1	> 26 µM (inactive)
CCOC(=O)CC1CCCCN1C(=O)c1cc(COc2cccc3cnccc23)on1 (centres undefined)	> 26 µM (inactive)
Cc1ccc(NC2=C/C(=N\S(=O)(=O)c3cccs3)c3ccccc3C2=O)c(C)c1	> 26 µM (inactive)

SMILES	AC50
Cc1ccc(NC(=O)c2cc(S(=O)(=O)NCCC3=CCCCC3)ccc2F)cc1	> 26 µM (inactive)
CCN(CC)CCNC(=O)c1ccc(NC(=O)c2cn(-c3ccccc3)nc2-c2cccs2)cc1	18.2 µM
O=C1C(=O)c2ccccc2-c2ccccc21	> 26 µM (inactive)
CCCOc1ccc(Cc2c(Cl)nc(SC)nc2NC)cc1	> 26 µM (inactive)
CCN(CC)c1ccc(/C=N/NC(=O)CNC(=O)C2COc3ccccc3O2)c(O)c1 (centres undefined)	> 26 µM (inactive)
COC(=O)C1=C(C)N(Cc2ccccc2)C(=NCc2cccc(C(F)(F)F)c2)N[C@H]1c1cccc(C(F)(F)F)c1	> 26 µM (inactive)
Cc1nc(C(F)(F)F)c(C(=O)N/N=C(\N)c2ccccn2)s1	> 26 µM (inactive)
CCCCOc1cc(NCc2ccccc2)c2ncn(C(C)C)c2c1	> 26 µM (inactive)
C=CCn1c(SCN2C(=O)c3ccccc3C2=O)nc2ccc(Cl)cc2c1=O	> 26 µM (inactive)
CCCCC(=O)NC(c1ccccc1Cl)c1ccc2cccnc2c1O (centres undefined)	> 26 µM (inactive)
O=C(NCc1cccnc1)C(=O)Nc1nc(C23CC4CC(CC(C4)C2)C3)cs1	> 26 µM (inactive)
c1ccc(Nc2nc(NCc3ccco3)c3ccccc3n2)cc1	23.7 µM
COc1ccc(/C=C2\CN(Cc3ccccc3)C/C(=C\c3ccc(OC)c(O)c3)C2=O)cc1O	> 26 µM (inactive)
O=C(Nc1ccc(Nc2ccncc2)cc1)c1ccc(Nc2ccnc3ccc([N+](=O)[O-])cc23)cc1[N+](=O)[O-]	> 26 µM (inactive)
Cc1cccc(/C=N\NC(=O)c2ccc(Cl)cc2)c1O	> 26 µM (inactive)
OCCNc1nc(Nc2ccc(Cl)c(Cl)c2)nc2ccccc12	> 26 µM (inactive)
COc1ccc(CCNc2ncnc3sc(C)cc23)cc1OC	> 26 µM (inactive)
Oc1ccc(N=Nc2nccs2)c(O)c1	> 26 µM (inactive)
CCSc1ccc(NC(=O)c2cccnc2)cc1	> 26 µM (inactive)
O=NN(CCc1ccncc1)c1ccc(OCc2ccccc2)cc1	> 26 µM (inactive)
CCC(C)c1ccc(NC(=S)NC2CCN(Cc3ccccc3)CC2)cc1 (centres undefined)	> 26 µM (inactive)
O=C(CNc1ccccc1)N/N=C/c1c(O)ccc2ccccc12	> 26 µM (inactive)
C/C(=N\Nc1nc(C)cc(-c2ccccc2)n1)c1cccc(N)c1	> 26 µM (inactive)
CCOc1ccc(/C=N/NC(=O)c2[nH]ncc2Br)c(O)c1	> 26 µM (inactive)

SMILES	AC50
CCc1ccc(OCC(=O)NC(NC(=S)Nc2ccc(C)cc2C)C(Cl)(Cl)Cl)cc1 (centres undefined)	> 26 µM (inactive)
Cc1cc(N2CCOCC2)n2ncc(-c3ccccc3)c2n1	> 26 µM (inactive)
CC(C)c1ccc2c(c1)C(N1CCNCC1)Cc1ccc(F)cc1S2 (centres undefined)	> 26 µM (inactive)
O=S(=O)(c1cccs1)N1CCN(CC(O)COc2cc(Cl)ccc2Cl)CC1 (centres undefined)	> 26 µM (inactive)
N#Cc1c(N2CCCCC2)nc(N2CCCCC2)c2c1CCN(Cc1ccccc1)C2	> 26 µM (inactive)
Cc1ccc(Cl)cc1N1CCN(C(=O)CSc2nnc3n2C(C)(C)Cc2ccccc2-3)CC1	> 26 µM (inactive)
Cn1ncc2c(N3CCN(c4ccc(Cl)c(Cl)c4)CC3)ncnc21	> 26 µM (inactive)
Cc1ccc(NC(=O)Cn2c(=O)oc3cc(S(=O)(=O)N4CCC(C)CC4)ccc32)cc1C	> 26 µM (inactive)
CC(C)Nc1ccc(Nc2ccccc2)cc1	> 26 µM (inactive)
COc1ccc(Cl)c(Cn2c(NCc3ccco3)nc3c2c(=O)n(C)c(=O)n3C)c1	> 26 µM (inactive)
CN1/C(=C\C=N\NC(=O)c2ccc(O)cc2)C(C)(C)c2ccccc21	> 26 µM (inactive)
O=C(N/N=C/c1cc(Cl)ccc1O)c1cccnc1	> 26 µM (inactive)
O=C(CSc1nc2ccccc2c(=O)n1-c1ccccc1)N1CCc2ccccc2C1	> 26 µM (inactive)
COc1cc([N+](=O)[O-])cc(/C=N/NC(=O)c2cc(-c3ccccc3)nc3ccccc23)c1O	> 26 µM (inactive)
CCCC(=O)NC(c1ccc(N(C)C)cc1)c1ccc2cccnc2c1O (centres undefined)	> 26 µM (inactive)
CN1CCN(c2ccc([N+](=O)[O-])c3no[n+]([O-])c23)CC1	> 26 µM (inactive)
Cn1nccc1C(=O)NC1CCCc2c1cnn2-c1ccccc1F (centres undefined)	> 26 µM (inactive)
CCCCNc1c(-c2ccc(-c3cccc(Cl)c3)cc2)nc2ccccn12	> 26 µM (inactive)
COc1cccc(C(=O)Oc2c(Br)cc(Br)cc2/C=N/NC(=O)c2cc(C)[nH]n2)c1	> 26 µM (inactive)
Cc1ccc(C)c(S(=O)(=O)N2CCN(Cc3ccc(O)c4ncccc34)CC2)c1	> 26 µM (inactive)
Cc1nc2ccccc2n1/N=C/c1ccc([N+](=O)[O-])s1	> 26 µM (inactive)
CCn1c(SCC(=O)Nc2ccc(OC)cc2)nc2nc3c(cc2c1=O)CCCC3	> 26 µM (inactive)
CCOC(=O)C1CCN(Cc2ccc(O)c3ncccc23)CC1	> 26 µM (inactive)
COc1ccccc1/C=N\Nc1cc(C)nc(-n2nc(C)cc2C)n1	> 26 µM (inactive)

SMILES	AC50
CCN1c2ccccc2NC2N=C(OC)C(c3ccccc3)C21 (centres undefined)	> 26 µM (inactive)
CCOc1ccc(-n2c(=O)[nH]cc(C(=O)Nc3ccc(OC)c(OC)c3)c2=O)cc1	> 26 µM (inactive)
Cn1cccc1C1C=C(c2ccc(C(C)(C)C)cc2)Nc2ncnn21 (centres undefined)	> 26 µM (inactive)
Nc1c(Cl)ncnc1N/N=C/c1ccc2ccccc2n1	> 26 µM (inactive)
COc1ccc(-c2nn(-c3ccccc3)cc2C(=O)OCC(=O)c2ccc(C)c([N+](=O)[O-])c2)cc1	> 26 µM (inactive)
Cn1cc(C(=O)N/N=C/c2c(O)ccc3ccccc23)ccc1=O	> 26 µM (inactive)
CSc1ccc(S(=O)(=O)Nc2ccc(N3CCOCC3)c(Cl)c2)cc1	> 26 µM (inactive)
CC1CCN(Cc2c(C(=O)N/N=C/c3cc(Br)ccc3O)nnn2-c2nonc2N)CC1	> 26 µM (inactive)
Cn1nc(-c2ccc(Cl)cc2)nc2c(=O)n(C)c(=O)nc1-2	> 26 µM (inactive)
COc1ccc(/C=C/C(=O)NC(=S)Nc2ccccc2C(=O)NC2CCCCC2)cc1	> 26 µM (inactive)
C/C(=N\NC(=O)c1cc(-c2cccnc2)nc2ccccc12)c1ccc(O)cc1O	> 26 µM (inactive)
CCOC(=O)c1ccc(-[n+]2c(-c3ccccc3)cc(-c3ccccc3)cc2-c2ccccc2)cc1	> 26 µM (inactive)
CC(C)CN(C(=O)COC(=O)C12CC3CC(CC(Cl)(C3)C1)C2)c1c(N)n(Cc2ccccc2)c(=O)[nH]c1=O	> 26 µM (inactive)
CCC(=O)NC(c1ccc(C)cc1)c1cc([N+](=O)[O-])c2cccnc2c1O (centres undefined)	> 26 µM (inactive)
Cc1ccc(C2CC(c3cccc(C)c3)n3nc(N)nc3N2)cc1 (centres undefined)	> 26 µM (inactive)
O=[N+]([O-])c1c(Nc2ccc(O)cc2)cc(Cl)c2nonc12	> 26 µM (inactive)
O=C(Nc1ncnc2c1C(c1ccccc1)c1c(ccc3ccccc13)O2)c1ccccc1 (centres undefined)	> 26 µM (inactive)
COc1ccc(NS(=O)(=O)c2cccc(NC(=O)c3ccc(S(=O)(=O)N4CCCCCC4)cc3)c2)cc1	> 26 µM (inactive)
O=C(COC(=O)Cn1cnc2ccccc2c1=O)Nc1ccc2c(c1)OCO2	> 26 µM (inactive)
Cn1nccc1C(=O)NC1CCCc2c1cnn2-c1ccc(C(C)(C)C)cc1 (centres undefined)	> 26 µM (inactive)
COc1ccc(CNCCC(c2ccc(OC(C)C)cc2)C(C)C)cc1OC (centres undefined)	> 26 µM (inactive)
Cc1ccc2[nH]c(=O)c(C3C(C#N)=C(N)Oc4c3ccc3cccnc43)cc2c1 (centres undefined)	> 26 µM (inactive)
